Our source for the relative viability values is the supplement of paper PMC10307832.

Test in all cases: relative viability (nuclei count vs DMSO), 5 days (fraction); higher = more cells survive
Compound in experiment [1]: CC1=C(C(=NN1)C)CC2=C(C3=C(S2)N(C(=O)N(C3=O)C)CC(C)C)C(=O)N4C[C@@H](CO4)O + NC(=O)Nc1cc(-c2cccc(F)c2)sc1C(=O)N[C@H]1CCCNC1 [AZD7762] (partner 0.2 µM)
The procedure, abridged:
(§1)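 Relative viability equals treated-well nuclei counts divided by vehicle-well nuclei counts. Counts came from 4× images of lung cancer cell lines grown in 1536-well plates for 5 days after pin-tool dosing on the day after seeding. Dosing used one drug alone or a fixed anchor-drug dose plus five library-drug doses (not always all listed) in √10 steps, and values are medians of duplicate plates.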

Compound in experiment [2]: CC1=C(C(=NN1)C)CC2=C(C3=C(S2)N(C(=O)N(C3=O)C)CC(C)C)C(=O)N4C[C@@H](CO4)O + O=C(c1cc(Cc2n[nH]c(=O)c3ccccc23)ccc1F)N1CCN(C(=O)C2CC2)CC1 [Olaparib] (partner 8 µM)
The procedure, abridged: as §1

Compound in the experiment “IDH-C35 + Crizotinib”: Cc1ccccc1C(C(=O)NC1CCCCC1)N(C(=O)Cn1ccnc1C)c1cccc(F)c1 [IDH-C35] + C[C@@H](Oc1cc(-c2cnn(C3CCNCC3)c2)cnc1N)c1c(Cl)ccc(F)c1Cl [Crizotinib] (partner 1 µM)
The procedure, abridged:
as §1

Compound in the experiment “IDH-C35 + Foretinib”: Cc1ccccc1C(C(=O)NC1CCCCC1)N(C(=O)Cn1ccnc1C)c1cccc(F)c1 [IDH-C35] + COc1cc2c(Oc3ccc(NC(=O)C4(C(=O)Nc5ccc(F)cc5)CC4)cc3F)ccnc2cc1OCCCN1CCOCC1 [Foretinib] (partner 0.25 µM)
The procedure, abridged:
as §1

For the cell line NCI-H1792, the relative viability in experiment [1] (first compound 0.0025 µM) was 0.607; in experiment [1] (first compound 0.007906 µM), 0.727; in experiment [1] (first compound 0.025 µM), 0.512; in experiment [1] (first compound 0.07906 µM), 0.564; in experiment [1] (first compound 0.25 µM) it was 0.578; in experiment [2] (first compound 0.0025 µM) it was 0.542. Further, the relative viability in experiment [2] (first compound 0.007906 µM) turned out to be 0.384; in experiment [2] (first compound 0.025 µM), 0.356; in experiment [2] (first compound 0.07906 µM) it was 0.383; in experiment [2] (first compound 0.25 µM) it was 0.246; with IDH-C35 + Crizotinib (first compound 0.08 µM), 0.972; with IDH-C35 + Crizotinib (first compound 0.253 µM), 0.949. The relative viability was 0.94 in the experiment with IDH-C35 + Crizotinib (first compound 0.8 µM), 1.01 in the experiment with IDH-C35 + Crizotinib (first compound 2.53 µM) and 0.971 with IDH-C35 + Crizotinib (first compound 8 µM).

Consider NCI-H1793, for which the relative viability in experiment [1] (first compound 0.0025 µM) was found to be 0.281; in experiment [1] (first compound 0.007906 µM) it was 0.339; in experiment [1] (first compound 0.025 µM), 0.203; in experiment [1] (first compound 0.07906 µM) it was 0.279; in experiment [1] (first compound 0.25 µM), 0.24; in experiment [2] (first compound 0.0025 µM), 0.896. The relative viability in experiment [2] (first compound 0.007906 µM) stood at 0.975; in experiment [2] (first compound 0.025 µM) it was 0.829; in experiment [2] (first compound 0.07906 µM) it was 0.768; in experiment [2] (first compound 0.25 µM), 0.719; with IDH-C35 + Foretinib (first compound 0.08 µM), 0.753; in the experiment with IDH-C35 + Foretinib (first compound 0.253 µM), 0.81. Moreover, the relative viability stood at 0.724 in the experiment with IDH-C35 + Foretinib (first compound 0.8 µM) and 0.624 with IDH-C35 + Foretinib (first compound 8 µM).

NCI-H2009: the relative viability amounted to 0.704 in experiment [2] (first compound 0.0025 µM); 0.682 in experiment [2] (first compound 0.007906 µM); 0.649 in experiment [2] (first compound 0.025 µM); 0.711 in experiment [2] (first compound 0.07906 µM); 0.721 in experiment [2] (first compound 0.25 µM); 1.17 with IDH-C35 + Foretinib (first compound 0.08 µM). The relative viability in the experiment with IDH-C35 + Foretinib (first compound 0.253 µM) was determined as 1.28; in the experiment with IDH-C35 + Foretinib (first compound 0.8 µM) it was 1.24; in the experiment with IDH-C35 + Foretinib (first compound 2.53 µM) it was 1.13; in the experiment with IDH-C35 + Foretinib (first compound 8 µM), 1.18; in the experiment with IDH-C35 + Crizotinib (first compound 0.08 µM) it was 0.992; with IDH-C35 + Crizotinib (first compound 0.253 µM), 1. The results for the relative viability with IDH-C35 + Crizotinib (first compound 0.8 µM), in the experiment with IDH-C35 + Crizotinib (first compound 2.53 µM) and with IDH-C35 + Crizotinib (first compound 8 µM) were 1.08, 0.971 and 0.995, respectively.

Consider NCI-H2023, for which the relative viability came out at 0.47 in experiment [2] (first compound 0.0025 µM); 0.496 in experiment [2] (first compound 0.007906 µM); 0.449 in experiment [2] (first compound 0.025 µM); 0.435 in experiment [2] (first compound 0.07906 µM); 0.51 in experiment [2] (first compound 0.25 µM); 0.918 with IDH-C35 + Foretinib (first compound 0.08 µM). Moreover, the relative viability with IDH-C35 + Foretinib (first compound 0.253 µM) worked out at 1; in the experiment with IDH-C35 + Foretinib (first compound 0.8 µM), 1.09; with IDH-C35 + Foretinib (first compound 2.53 µM), 0.76; with IDH-C35 + Foretinib (first compound 8 µM), 0.839; in the experiment with IDH-C35 + Crizotinib (first compound 0.08 µM), 0.668; in the experiment with IDH-C35 + Crizotinib (first compound 0.253 µM), 0.627. Also, the results for the relative viability in the experiment with IDH-C35 + Crizotinib (first compound 0.8 µM), in the experiment with IDH-C35 + Crizotinib (first compound 2.53 µM) and with IDH-C35 + Crizotinib (first compound 8 µM) were 0.637, 0.636 and 0.592, respectively.

With NCI-H2228, the relative viability in experiment [2] (first compound 0.0025 µM) was determined as 0.609; in experiment [2] (first compound 0.007906 µM) it was 0.745; in experiment [2] (first compound 0.025 µM), 0.786; in experiment [2] (first compound 0.07906 µM), 0.786; in experiment [2] (first compound 0.25 µM), 0.993; with IDH-C35 + Foretinib (first compound 0.08 µM), 0.939. Further, the relative viability with IDH-C35 + Foretinib (first compound 0.253 µM) amounted to 0.814; in the experiment with IDH-C35 + Foretinib (first compound 0.8 µM), 0.973; with IDH-C35 + Foretinib (first compound 2.53 µM) it was 0.853; in the experiment with IDH-C35 + Foretinib (first compound 8 µM) it was 0.667; in the experiment with IDH-C35 + Crizotinib (first compound 0.08 µM), 0.418; with IDH-C35 + Crizotinib (first compound 0.253 µM), 0.457. In addition, the relative viability with IDH-C35 + Crizotinib (first compound 0.8 µM) stood at 0.51; with IDH-C35 + Crizotinib (first compound 2.53 µM), 0.496; with IDH-C35 + Crizotinib (first compound 8 µM), 0.506.

As for NCI-H2342, the relative viability in experiment [1] (first compound 0.0025 µM) turned out to be 0.414; in experiment [1] (first compound 0.007906 µM), 0.505; in experiment [1] (first compound 0.025 µM), 0.345; in experiment [1] (first compound 0.07906 µM) it was 0.373; in experiment [1] (first compound 0.25 µM), 0.388; in experiment [2] (first compound 0.0025 µM), 0.463. Besides, the relative viability in experiment [2] (first compound 0.007906 µM) came to 0.473; in experiment [2] (first compound 0.025 µM), 0.374; in experiment [2] (first compound 0.07906 µM), 0.425; in experiment [2] (first compound 0.25 µM) it was 0.403; with IDH-C35 + Foretinib (first compound 0.08 µM), 0.969; with IDH-C35 + Foretinib (first compound 0.253 µM), 1.02. In addition, the relative viability with IDH-C35 + Foretinib (first compound 0.8 µM) stood at 1.17; with IDH-C35 + Foretinib (first compound 2.53 µM) it was 1.16; with IDH-C35 + Foretinib (first compound 8 µM) it was 1.01.

In the case of SK-LU-1, the relative viability is 0.439 in experiment [2] (first compound 0.0025 µM); 0.366 in experiment [2] (first compound 0.007906 µM); 0.266 in experiment [2] (first compound 0.025 µM); 0.332 in experiment [2] (first compound 0.07906 µM); 0.377 in experiment [2] (first compound 0.25 µM); 0.833 with IDH-C35 + Foretinib (first compound 0.08 µM). Besides, the relative viability with IDH-C35 + Foretinib (first compound 0.253 µM) is 0.839; in the experiment with IDH-C35 + Foretinib (first compound 0.8 µM), 0.87; with IDH-C35 + Foretinib (first compound 2.53 µM), 0.878; with IDH-C35 + Foretinib (first compound 8 µM), 0.901; with IDH-C35 + Crizotinib (first compound 0.08 µM), 0.881; in the experiment with IDH-C35 + Crizotinib (first compound 0.253 µM), 0.797. For the same cell line, the relative viability was determined as 0.948 with IDH-C35 + Crizotinib (first compound 0.8 µM), 0.904 in the experiment with IDH-C35 + Crizotinib (first compound 2.53 µM) and 0.881 in the experiment with IDH-C35 + Crizotinib (first compound 8 µM).

On to SK-MES-1, for which the relative viability was found to be 0.702 in experiment [2] (first compound 0.0025 µM); 0.756 in experiment [2] (first compound 0.007906 µM); 0.691 in experiment [2] (first compound 0.025 µM); 0.82 in experiment [2] (first compound 0.07906 µM); 0.774 in experiment [2] (first compound 0.25 µM); 0.983 with IDH-C35 + Foretinib (first compound 0.08 µM). Also, the relative viability worked out at 0.955 with IDH-C35 + Foretinib (first compound 0.253 µM); 0.897 with IDH-C35 + Foretinib (first compound 0.8 µM); 0.971 with IDH-C35 + Foretinib (first compound 2.53 µM); 0.756 with IDH-C35 + Foretinib (first compound 8 µM); 1.05 in the experiment with IDH-C35 + Crizotinib (first compound 0.08 µM); 0.953 in the experiment with IDH-C35 + Crizotinib (first compound 0.253 µM). The relative viability worked out at 0.912 in the experiment with IDH-C35 + Crizotinib (first compound 0.8 µM), 0.937 with IDH-C35 + Crizotinib (first compound 2.53 µM) and 0.986 with IDH-C35 + Crizotinib (first compound 8 µM).

Turning to SW 900, the relative viability in experiment [1] (first compound 0.0025 µM) worked out at 0.604; in experiment [1] (first compound 0.007906 µM), 0.706; in experiment [1] (first compound 0.025 µM) it was 0.628; in experiment [1] (first compound 0.07906 µM), 0.58; in experiment [1] (first compound 0.25 µM) it was 0.449; in experiment [2] (first compound 0.0025 µM), 0.805. Further, the relative viability in experiment [2] (first compound 0.007906 µM) was 1.09; in experiment [2] (first compound 0.025 µM) it was 0.846; in experiment [2] (first compound 0.07906 µM), 1; in experiment [2] (first compound 0.25 µM), 0.893; with IDH-C35 + Foretinib (first compound 0.08 µM) it was 0.729; with IDH-C35 + Foretinib (first compound 0.253 µM) it was 0.909. Also, the relative viability with IDH-C35 + Foretinib (first compound 0.8 µM) stood at 0.877; with IDH-C35 + Foretinib (first compound 2.53 µM), 0.6; in the experiment with IDH-C35 + Foretinib (first compound 8 µM), 0.926.

As to SW 1573, the relative viability in experiment [2] (first compound 0.0025 µM) was found to be 0.462; in experiment [2] (first compound 0.007906 µM), 0.515; in experiment [2] (first compound 0.025 µM), 0.521; in experiment [2] (first compound 0.07906 µM), 0.468; in experiment [2] (first compound 0.25 µM), 0.492; in the experiment with IDH-C35 + Foretinib (first compound 0.08 µM) it was 1.18. Further, the relative viability amounted to 0.873 with IDH-C35 + Foretinib (first compound 0.253 µM); 0.915 with IDH-C35 + Foretinib (first compound 0.8 µM); 0.933 with IDH-C35 + Foretinib (first compound 2.53 µM); 0.928 in the experiment with IDH-C35 + Foretinib (first compound 8 µM); 0.759 in the experiment with IDH-C35 + Crizotinib (first compound 0.08 µM); 0.889 with IDH-C35 + Crizotinib (first compound 0.253 µM). Also, the figures for the relative viability with IDH-C35 + Crizotinib (first compound 0.8 µM), with IDH-C35 + Crizotinib (first compound 2.53 µM) and in the experiment with IDH-C35 + Crizotinib (first compound 8 µM) were 0.798, 1.01 and 0.713, respectively.
